Experimental data published in patent EP0334551A1, “Anti-neoplastic formulations” (priority 1988, dated 1989).
Like-named read-outs stand apart in the source and are kept apart here.

Legend:
[1] = aqueous solution of unlyophilised carboplatin in sterile water, at room temperature
Description: The solutions obtained were filled into amber moulded 20 ml vials and sealed with Teflon-lined caps, West 541. The above two solutions were stored at room temperature for 15 months, then tested for stability. […] The solution was filled into 20 ml amber moulded vials and sealed with grey chlorobutyl rubber caps. […] Each solution was filled into 6 ml clear drawn vials and sealed with Teflon lined caps.

[2] = in all the infusion fluids studied; cited from earlier work
[3] = reconstituted solutions of the lyophilised powder, cited from earlier work

Row | Compound | stable (time) [1] | stable (time) [2] [h] | stable (time) ([3]; at room temperature) [h] | stable (time) ([3]; under refrigeration) [h]
1 | [NH2][Pt]1([NH2])[O]C(=O)C2(CCC2)C(=O)[O]1 [carboplatin, cis-Diamine[1,1-cyclobutanedicarboxylato-(2-)-O,O′]platinum [SP-4-27]] | at least 18 months | 24 | 8 | 24
2 | iproplatin | – | 24 | – | –
